Source: ChEMBL document CHEMBL1201862, “PubChem BioAssay data set” (2004)
Each block holds one molecule with its values, some of them ahead of it. Activity calls are given as the source filed them.

Tests used:
[1] = target: T1, Zinc finger protein mex-5 (Caenorhabditis elegans, UniProt Q9XUB2); test: potency of MEX-5 RNA-binding blockers – biochemical, C. elegans, fluorescence polarization, dose response (AID 1960)
T1 sequence (Q9XUB2 whole entry): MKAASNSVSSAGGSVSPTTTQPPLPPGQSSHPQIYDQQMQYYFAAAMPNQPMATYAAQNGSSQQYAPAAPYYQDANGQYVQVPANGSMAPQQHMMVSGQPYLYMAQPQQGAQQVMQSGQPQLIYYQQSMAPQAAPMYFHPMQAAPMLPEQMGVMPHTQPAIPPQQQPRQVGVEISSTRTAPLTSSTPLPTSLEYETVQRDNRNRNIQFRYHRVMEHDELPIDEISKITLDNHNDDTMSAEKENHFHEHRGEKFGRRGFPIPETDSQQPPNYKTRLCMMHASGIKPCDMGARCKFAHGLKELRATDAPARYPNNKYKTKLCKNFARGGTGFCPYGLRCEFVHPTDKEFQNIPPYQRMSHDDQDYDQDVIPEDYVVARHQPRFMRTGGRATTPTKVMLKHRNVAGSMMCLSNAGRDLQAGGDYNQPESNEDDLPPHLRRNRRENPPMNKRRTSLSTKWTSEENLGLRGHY

[2] = target: Large T antigen (Simian virus 40, UniProt P03070); type: functional, Betapolyomavirus macacae;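 note: Confirmatory-stage PubChem screen for compounds that inhibit SV40 T antigen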
[3] = target: T2, Heat shock factor protein 1 (Mus musculus, UniProt P38532); test: decrease of HSF1-responsive luciferase luminescence – cell-based, NIH3T3, dose retest, confirmation (AID 2382); type: functional;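 note: NIH3T3 fibroblasts with HSF1-driven luciferase reporter stressed by proteasome inhibitor MG132; luminescence from HSF1-driven luciferase expression after 8 hours of MG132 stress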
T2 sequence (P38532 whole entry): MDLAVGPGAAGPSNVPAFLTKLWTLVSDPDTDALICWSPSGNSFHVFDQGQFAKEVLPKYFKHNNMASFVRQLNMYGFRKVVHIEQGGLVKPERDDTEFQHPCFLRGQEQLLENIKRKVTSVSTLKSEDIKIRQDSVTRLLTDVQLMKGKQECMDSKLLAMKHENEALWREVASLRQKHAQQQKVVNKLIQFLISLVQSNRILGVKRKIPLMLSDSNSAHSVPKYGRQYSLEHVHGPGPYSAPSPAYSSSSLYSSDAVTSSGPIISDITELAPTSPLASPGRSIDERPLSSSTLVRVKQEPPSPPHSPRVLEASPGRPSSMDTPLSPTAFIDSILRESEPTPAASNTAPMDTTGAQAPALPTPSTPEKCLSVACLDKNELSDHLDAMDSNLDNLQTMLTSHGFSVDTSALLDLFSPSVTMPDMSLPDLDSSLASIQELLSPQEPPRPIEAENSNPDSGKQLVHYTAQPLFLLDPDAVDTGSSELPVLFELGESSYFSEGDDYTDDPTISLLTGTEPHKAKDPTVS

[4] = target: T3, Sentrin-specific protease 8 (Homo sapiens, UniProt Q96LD8); type: functional;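 note: kinetic enzyme assay of SENP8 cleaving a Nedd8 protein substrate, dose-response confirmation of screening hits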
T3 sequence (Q96LD8 whole entry): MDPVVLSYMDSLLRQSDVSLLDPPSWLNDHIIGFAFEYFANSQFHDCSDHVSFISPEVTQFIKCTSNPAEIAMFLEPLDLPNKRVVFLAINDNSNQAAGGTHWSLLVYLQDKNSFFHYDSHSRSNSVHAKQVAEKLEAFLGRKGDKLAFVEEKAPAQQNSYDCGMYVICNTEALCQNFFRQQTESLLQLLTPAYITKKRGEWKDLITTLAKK

[5] = target: Serine/threonine-protein kinase PAK 4 (Homo sapiens, UniProt O96013); type: functional;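 note: value obtained within a kinome profiling panel in which PAK4 was one of the panel members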
[6] = target: Glycogen synthase kinase-3 alpha (Homo sapiens, UniProt P49840); type: functional;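 note: GSK3A result taken from a broad kinome-wide kinase panel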
[7] = target: Hepatocyte growth factor receptor (Homo sapiens, UniProt P08581); type: functional;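 note: kinase panel profiling across the kinome, with MET as the panel member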
[8] = target: Leucine-rich repeat serine/threonine-protein kinase 2 (Homo sapiens, UniProt Q5S007); type: functional;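 note: value from a broad kinome-wide panel profiling study in which LRRK2 was one of the kinases tested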
[9] = target: Cyclin-dependent kinase 8 (Homo sapiens, UniProt P49336); test: Navigating the Kinome. Panel member name: CDK8; type: functional
[10] = target: Dual specificity mitogen-activated protein kinase kinase 2 (Homo sapiens, UniProt P36507); test: Navigating the Kinome. Panel member name: MAP2K2; type: functional
[11] = target: SUMO-activating enzyme (Homo sapiens, UniProt Q9UBT2); test: blockers of SAE1/SAE2–UBC9 SUMO transfer – biochemical, HTRF, uHTS, primary screen (AID 2006); type: protein-complex assay
[12] = target: DNA dC->dU-editing enzyme APOBEC-3A (Homo sapiens, UniProt P31941); test: A3A deaminase inhibition for selectivity – biochemical, dose response (AID 504722); type: functional
[13] = target: T4, Sentrin-specific protease 6 (Homo sapiens, UniProt Q9GZR1); type: functional;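 note: Luminescence-based dose-response confirmatory assay of SENP6 inhibition, following up an ultra-high-throughput screen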
T4 sequence (Q9GZR1 whole entry): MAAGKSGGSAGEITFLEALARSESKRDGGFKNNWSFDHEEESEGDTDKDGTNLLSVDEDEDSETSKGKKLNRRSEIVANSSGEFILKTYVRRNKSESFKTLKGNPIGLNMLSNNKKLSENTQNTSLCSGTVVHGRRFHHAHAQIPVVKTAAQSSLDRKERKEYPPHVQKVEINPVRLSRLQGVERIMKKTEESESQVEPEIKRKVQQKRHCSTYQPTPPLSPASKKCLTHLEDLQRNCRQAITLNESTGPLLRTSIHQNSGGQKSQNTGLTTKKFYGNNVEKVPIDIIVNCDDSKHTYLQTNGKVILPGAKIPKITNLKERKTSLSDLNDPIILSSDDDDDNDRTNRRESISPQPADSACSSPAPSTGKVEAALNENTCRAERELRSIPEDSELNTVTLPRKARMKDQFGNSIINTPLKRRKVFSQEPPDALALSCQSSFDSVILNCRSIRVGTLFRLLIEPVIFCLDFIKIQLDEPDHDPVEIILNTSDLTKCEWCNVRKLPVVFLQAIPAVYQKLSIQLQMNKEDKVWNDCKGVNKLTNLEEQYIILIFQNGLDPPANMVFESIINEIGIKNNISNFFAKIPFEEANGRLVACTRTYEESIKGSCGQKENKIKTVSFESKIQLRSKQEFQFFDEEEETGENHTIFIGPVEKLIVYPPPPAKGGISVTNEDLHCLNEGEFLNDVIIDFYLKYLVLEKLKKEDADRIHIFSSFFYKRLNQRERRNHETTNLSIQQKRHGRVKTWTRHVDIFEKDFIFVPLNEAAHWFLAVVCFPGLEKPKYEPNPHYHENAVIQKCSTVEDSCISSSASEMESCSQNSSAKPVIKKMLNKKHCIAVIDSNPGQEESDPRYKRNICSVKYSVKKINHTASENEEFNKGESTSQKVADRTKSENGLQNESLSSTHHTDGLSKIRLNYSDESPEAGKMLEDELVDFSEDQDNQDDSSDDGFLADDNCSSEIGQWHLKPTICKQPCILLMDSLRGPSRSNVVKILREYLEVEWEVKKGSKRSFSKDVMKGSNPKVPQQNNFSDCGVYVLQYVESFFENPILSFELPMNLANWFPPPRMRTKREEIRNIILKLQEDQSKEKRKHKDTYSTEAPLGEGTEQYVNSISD

Chain of SUMO-activating enzyme (Q9UBE0 whole entry): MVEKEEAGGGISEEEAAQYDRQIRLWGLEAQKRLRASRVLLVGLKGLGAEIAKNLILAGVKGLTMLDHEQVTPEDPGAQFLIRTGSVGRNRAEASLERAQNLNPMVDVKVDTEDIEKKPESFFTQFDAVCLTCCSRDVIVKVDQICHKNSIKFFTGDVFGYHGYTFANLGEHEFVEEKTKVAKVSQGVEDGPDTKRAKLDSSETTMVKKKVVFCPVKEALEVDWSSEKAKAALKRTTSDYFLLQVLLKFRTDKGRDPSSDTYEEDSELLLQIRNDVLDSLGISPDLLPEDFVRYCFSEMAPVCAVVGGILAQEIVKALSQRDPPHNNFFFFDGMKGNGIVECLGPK
Chain of SUMO-activating enzyme (Q9UBT2 whole entry): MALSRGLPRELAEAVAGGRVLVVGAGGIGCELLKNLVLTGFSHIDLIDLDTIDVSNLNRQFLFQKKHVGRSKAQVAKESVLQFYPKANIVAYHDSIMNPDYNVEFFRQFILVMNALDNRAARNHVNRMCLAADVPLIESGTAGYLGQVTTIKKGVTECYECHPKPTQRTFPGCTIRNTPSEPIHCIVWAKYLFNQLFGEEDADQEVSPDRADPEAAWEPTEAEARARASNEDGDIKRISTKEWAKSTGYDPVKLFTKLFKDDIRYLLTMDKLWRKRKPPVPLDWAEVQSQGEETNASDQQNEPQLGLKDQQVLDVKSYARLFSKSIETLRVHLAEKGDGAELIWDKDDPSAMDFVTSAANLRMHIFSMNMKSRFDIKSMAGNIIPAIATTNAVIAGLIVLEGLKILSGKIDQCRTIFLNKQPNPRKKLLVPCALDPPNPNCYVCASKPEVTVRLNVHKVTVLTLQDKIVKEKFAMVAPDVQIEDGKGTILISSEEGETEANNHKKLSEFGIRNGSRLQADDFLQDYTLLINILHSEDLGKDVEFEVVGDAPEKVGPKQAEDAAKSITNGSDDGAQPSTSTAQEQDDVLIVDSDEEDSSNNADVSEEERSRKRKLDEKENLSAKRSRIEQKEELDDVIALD
Chain of Large T antigen (P03070 whole entry): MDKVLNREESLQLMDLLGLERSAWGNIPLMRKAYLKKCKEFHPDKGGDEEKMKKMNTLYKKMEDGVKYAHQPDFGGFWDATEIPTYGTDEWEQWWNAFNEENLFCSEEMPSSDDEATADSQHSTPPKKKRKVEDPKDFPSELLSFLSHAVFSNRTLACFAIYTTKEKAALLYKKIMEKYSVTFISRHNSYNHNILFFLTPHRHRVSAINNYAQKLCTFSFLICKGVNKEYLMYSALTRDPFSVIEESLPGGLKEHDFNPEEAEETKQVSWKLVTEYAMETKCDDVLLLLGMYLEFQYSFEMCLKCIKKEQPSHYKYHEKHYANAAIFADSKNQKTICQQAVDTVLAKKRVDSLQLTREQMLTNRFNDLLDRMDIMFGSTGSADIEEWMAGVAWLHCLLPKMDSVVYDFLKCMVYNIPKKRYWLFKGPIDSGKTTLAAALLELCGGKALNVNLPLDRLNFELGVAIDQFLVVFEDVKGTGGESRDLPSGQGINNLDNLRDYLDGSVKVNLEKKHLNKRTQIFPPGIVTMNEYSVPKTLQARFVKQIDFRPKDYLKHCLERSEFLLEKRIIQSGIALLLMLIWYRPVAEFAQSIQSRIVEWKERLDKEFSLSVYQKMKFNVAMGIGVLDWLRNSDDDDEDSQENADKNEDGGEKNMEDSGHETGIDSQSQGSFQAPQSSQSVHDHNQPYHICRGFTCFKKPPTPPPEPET
Chain of Hepatocyte growth factor receptor (P08581 whole entry): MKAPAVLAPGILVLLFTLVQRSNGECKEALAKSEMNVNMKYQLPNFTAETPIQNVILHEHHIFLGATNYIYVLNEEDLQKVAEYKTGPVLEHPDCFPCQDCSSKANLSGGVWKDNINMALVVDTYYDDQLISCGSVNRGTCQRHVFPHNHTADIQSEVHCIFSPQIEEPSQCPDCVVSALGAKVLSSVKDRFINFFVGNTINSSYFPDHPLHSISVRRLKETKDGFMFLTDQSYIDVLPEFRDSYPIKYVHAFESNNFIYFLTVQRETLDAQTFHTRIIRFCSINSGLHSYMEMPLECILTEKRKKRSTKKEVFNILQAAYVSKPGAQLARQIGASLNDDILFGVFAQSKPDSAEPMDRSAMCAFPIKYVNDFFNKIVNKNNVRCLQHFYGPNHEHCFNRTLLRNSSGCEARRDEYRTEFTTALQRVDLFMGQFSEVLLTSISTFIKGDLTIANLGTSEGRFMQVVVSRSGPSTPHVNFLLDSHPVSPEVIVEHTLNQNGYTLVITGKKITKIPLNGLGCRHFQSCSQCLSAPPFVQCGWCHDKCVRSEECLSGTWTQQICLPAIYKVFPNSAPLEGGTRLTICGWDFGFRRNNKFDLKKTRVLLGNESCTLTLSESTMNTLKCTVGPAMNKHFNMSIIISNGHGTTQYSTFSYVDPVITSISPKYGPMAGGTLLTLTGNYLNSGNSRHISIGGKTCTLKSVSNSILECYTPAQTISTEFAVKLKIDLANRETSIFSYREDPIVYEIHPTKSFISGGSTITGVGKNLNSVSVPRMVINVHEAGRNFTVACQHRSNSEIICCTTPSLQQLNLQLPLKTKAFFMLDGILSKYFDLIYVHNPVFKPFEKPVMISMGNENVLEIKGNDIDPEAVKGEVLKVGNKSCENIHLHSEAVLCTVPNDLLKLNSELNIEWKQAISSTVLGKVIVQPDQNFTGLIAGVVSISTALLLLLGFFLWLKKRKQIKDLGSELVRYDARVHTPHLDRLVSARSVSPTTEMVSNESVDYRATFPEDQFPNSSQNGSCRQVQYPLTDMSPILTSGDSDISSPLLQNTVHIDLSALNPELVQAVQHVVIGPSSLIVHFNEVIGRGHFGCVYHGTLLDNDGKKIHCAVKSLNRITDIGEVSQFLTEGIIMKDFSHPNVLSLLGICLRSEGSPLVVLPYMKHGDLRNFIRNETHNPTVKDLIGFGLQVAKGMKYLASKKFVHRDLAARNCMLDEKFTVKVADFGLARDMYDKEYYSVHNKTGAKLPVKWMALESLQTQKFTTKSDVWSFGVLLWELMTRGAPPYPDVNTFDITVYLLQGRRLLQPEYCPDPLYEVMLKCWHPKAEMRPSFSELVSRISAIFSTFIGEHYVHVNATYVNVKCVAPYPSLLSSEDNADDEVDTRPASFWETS
Chain of Glycogen synthase kinase-3 alpha (P49840 whole entry): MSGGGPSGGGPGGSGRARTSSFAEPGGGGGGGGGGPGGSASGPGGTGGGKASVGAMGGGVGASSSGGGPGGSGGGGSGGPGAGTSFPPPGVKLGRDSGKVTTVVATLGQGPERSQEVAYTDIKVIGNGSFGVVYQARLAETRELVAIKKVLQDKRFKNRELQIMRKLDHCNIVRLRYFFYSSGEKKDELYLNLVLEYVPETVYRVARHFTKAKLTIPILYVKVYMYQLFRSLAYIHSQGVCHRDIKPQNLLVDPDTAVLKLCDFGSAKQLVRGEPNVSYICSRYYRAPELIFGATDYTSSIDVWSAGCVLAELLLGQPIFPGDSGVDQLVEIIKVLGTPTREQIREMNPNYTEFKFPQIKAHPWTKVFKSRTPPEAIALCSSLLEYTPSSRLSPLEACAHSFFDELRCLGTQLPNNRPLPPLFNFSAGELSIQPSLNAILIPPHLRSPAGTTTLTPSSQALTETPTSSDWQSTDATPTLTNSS
Chain of Cyclin-dependent kinase 8 (P49336 whole entry): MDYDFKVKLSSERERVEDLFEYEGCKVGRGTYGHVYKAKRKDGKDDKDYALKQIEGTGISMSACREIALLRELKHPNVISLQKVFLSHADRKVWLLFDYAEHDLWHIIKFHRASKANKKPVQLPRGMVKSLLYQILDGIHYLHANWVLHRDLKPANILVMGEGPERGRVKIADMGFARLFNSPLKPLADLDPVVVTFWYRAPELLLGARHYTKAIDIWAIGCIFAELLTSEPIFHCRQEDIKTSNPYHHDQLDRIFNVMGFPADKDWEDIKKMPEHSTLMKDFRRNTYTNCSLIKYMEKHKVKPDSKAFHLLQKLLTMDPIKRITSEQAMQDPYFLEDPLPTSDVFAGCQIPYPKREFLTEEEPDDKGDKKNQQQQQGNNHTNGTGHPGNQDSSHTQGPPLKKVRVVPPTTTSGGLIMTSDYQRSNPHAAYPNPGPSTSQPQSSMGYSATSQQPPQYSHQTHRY
Chain of DNA dC->dU-editing enzyme APOBEC-3A (P31941 whole entry): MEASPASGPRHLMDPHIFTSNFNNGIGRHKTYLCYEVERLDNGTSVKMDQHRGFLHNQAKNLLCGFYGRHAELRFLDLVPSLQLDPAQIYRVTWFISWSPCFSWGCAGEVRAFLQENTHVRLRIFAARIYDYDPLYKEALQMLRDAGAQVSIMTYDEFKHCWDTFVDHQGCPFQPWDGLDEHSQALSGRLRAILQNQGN
Chain of Serine/threonine-protein kinase PAK 4 (O96013 whole entry): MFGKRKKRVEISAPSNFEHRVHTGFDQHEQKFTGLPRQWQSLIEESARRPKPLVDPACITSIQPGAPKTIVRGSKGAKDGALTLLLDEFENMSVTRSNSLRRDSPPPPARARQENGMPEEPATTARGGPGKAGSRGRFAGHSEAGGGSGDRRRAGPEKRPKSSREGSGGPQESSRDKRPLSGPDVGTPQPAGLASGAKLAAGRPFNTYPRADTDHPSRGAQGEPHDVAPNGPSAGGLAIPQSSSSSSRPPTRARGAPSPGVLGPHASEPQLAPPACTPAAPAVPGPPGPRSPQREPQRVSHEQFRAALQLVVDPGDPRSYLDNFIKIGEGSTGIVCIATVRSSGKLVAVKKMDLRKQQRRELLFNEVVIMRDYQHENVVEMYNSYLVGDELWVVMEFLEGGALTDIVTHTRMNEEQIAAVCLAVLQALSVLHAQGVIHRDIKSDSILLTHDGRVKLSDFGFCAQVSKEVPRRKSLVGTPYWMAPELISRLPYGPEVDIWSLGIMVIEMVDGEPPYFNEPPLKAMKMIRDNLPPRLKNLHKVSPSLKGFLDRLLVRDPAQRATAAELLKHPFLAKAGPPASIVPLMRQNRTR

Structure (SMILES): O=C1C=C(O)c2c(O)cc(O)c(O)c2C1=O
EC50 [1]: 0.899 µM (active)
IC50 [2]: > 100 µM (active)

Structure (SMILES): CC1(C)C=C2C(=NN(c3ccccc3)C(N)=C2C#N)CO1
EC50 [3]: > 195 µM (not active)
IC50 [4]: 0.0173 µM (active)

Ki [5]: > 5.01 µM (inactive)
Ki [6]: > 3.98 µM (inactive)
Ki [7]: > 2.51 µM (inactive)
Ki [8]: > 2.51 µM (inactive)
Ki [9]: > 3.98 µM (inactive)
Ki [10]: > 3.98 µM (inactive)
Structure (SMILES): Cc1ccc(-c2cc3nc(Br)cnc3[nH]2)cc1

Structure (SMILES): CC(=O)N(C1=C(Cl)C(=O)c2ccccc2C1=O)c1ccc(C(=O)O)cc1
IC50 [11]: 17.3 µM (active)
IC50 [12]: > 100 µM (inactive)
IC50 [13]: 4.08 µM (active)
